Here are results for one substance from patent US11912755B2, “Endostatin fragments and variants for use in treating fibrosis” (iBio, Inc., priority 2015, dated 2024).

Entries after “also recorded” stand apart in the source; their conditions may differ. Ends that are not written are not given here.

The test system of test [1] is TGF-β-induced dermal fibrosis in mouse skin. Briefly: In vivo TGF-β-induced dermal fibrosis in mouse skin. Here is the method:
In Vivo Mouse Experiments. CB57BL6/J male mice were purchased from The Jackson Laboratory (Bar Harbor, ME). Human rE (10 μg/ml) or Endostatin peptides (10 μg/ml) in combination with TGF-β (10 ng/ml), or TGF-β alone were injected intradermally on the back of mice in a total volume of 100 μl 1×PBS. Mice were injected in two different skin sites and sacrificed one week post-injection. Skin surrounding the injection site was harvested and fixed in 10% formalin prior to embedding in paraffin.
Measurement of Skin Dermal Thickness. Six μm sections of paraffin-embedded human and mouse skin tissues were stained with hematoxylin and eosin (H&E). In some experiments, sections were stained with Masson trichrome which identifies collagens. Images were taken on a Nikon Eclipse 800 microscope. The thickness of the dermis was measured in 6 random fields of each section using the image/J® software. Data are shown in arbitrary units.
E4, a peptide representing the carboxy terminus of human endostatin, can attenuate fibrosis triggered by multiple fibrogenic factors. The anti-fibrotic effects of E4 can be detected whether administered concomitantly with or following the fibrogenic trigger. The efficacy of E4 was confirmed in […] pre-clinical models of fibrosis: a) bleomycin-induced dermal fibrosis in vivo in mouse skin, b) TGF-β induced dermal fibrosis in mouse skin, and c) bleomycin-induced pulmonary fibrosis. E4 peptide or a control peptide (E1; representing the amino terminal region of endostatin) were administered at the same time as TGF-β or bleomycin or 3-4 days following TGF-β or bleomycin. Mice were sacrificed one and two weeks after TGF-β-initiation of dermal fibrosis, and two and three weeks after bleomycin-induced pulmonary fibrosis. Two different modes of administration of the E4 peptide were also tested. It was confirmed that intraperitoneal and intratracheal administration was effective. The amount of E4 that was administered was 10 μg/ml in a total volume of 100 μl for skin and IP injections and 50 μl for IT administration.
For these studies, fibrosis was assessed by measurement of dermal thickness on H&E skin sections (skin), assessment of collagen levels by Masson Trichrome staining (skin and lung), and measurement of collagen levels by Sircol assay (lung). Furthermore, to confirm the mechanism by which E4 exerts its anti-fibrotic effects, the production of extra-cellular matrix (ECM) components, the levels of enzymes that promote matrix stabilization and thus accumulation and levels of those that degrade ECM components, and levels of transcription factors downstream of the pro-fibrotic triggers were evaluated. Results were assessed using the unpaired t test and the 3-way ANOVA (for the ID1 data).

The test system of another test is HUVECs. Briefly: Tubular formation assay in MATRIGEL
To be noted: 50 nM, 24 hours. The format is cell-based, human. Here is the method:
Tubular formation assay. The ability of endostatin peptide to inhibit angiogenesis was examined in tubular formation assay using MATRIGEL® culture. Human umbilical vein endothelial cells (HUVECs) were maintained in endothelial cell basal medium-2 (EBM-2; Clonetics, San Diego, CA) supplemented with EBM-2 MV SINGLEQUOTS®. HUVECs (5×10^4) were cultured in duplicate on 24-well MATRIGEL® plates (BD Biosciences, San Diego, CA) alone, or in the presence of rE or E4 peptide (50 nM) in EBM-2 at 37° C. DMSO was used as vehicle control. After 24 hours, images were captured using a […] microscope. The degree of cord formation was quantified by measuring the area occupied by tubes in 6 random fields per well. Three independent experiments were performed.

The subject of test [2] is bleomycin induced dermal fibrosis. Briefly: Bleomycin-induced dermal fibrosis in mouse skin. To be noted: single administration of E4 10 μg/ml on first day, daily bleomycin; skin harvested after 10 days. The test is classed as in vivo. Here is the method:
FIGS. 8A-8B. The effect of endostatin E-4 on bleomycin induced dermal fibrosis in vivo. FIG. 8A: Mice were injected subcutaneously with 1×PBS as vehicle (V) or Bleomycin (Bleo; 20 μg/mouse) daily. E-4 (10 μg/ml) was mixed with bleomycin on the first day, and daily bleomycin administration was continued without subsequent injections of E4 (Bleo+E-4). Skin was harvested after 10 days. Sections were stained with H&E. Magnification, 100×. Data represent three independent experiments. Mann-Whitney U test was used for statistical analysis. * P<0.001, **P<0.00001.
E4, a peptide representing the carboxy terminus of human endostatin, can attenuate fibrosis triggered by multiple fibrogenic factors. The anti-fibrotic effects of E4 can be detected whether administered concomitantly with or following the fibrogenic trigger. The efficacy of E4 was confirmed in […] pre-clinical models of fibrosis: a) bleomycin-induced dermal fibrosis in vivo in mouse skin, b) TGF-β induced dermal fibrosis in mouse skin, and c) bleomycin-induced pulmonary fibrosis. […]
For these studies, fibrosis was assessed by measurement of dermal thickness on H&E skin sections (skin), assessment of collagen levels by Masson Trichrome staining (skin and lung), and measurement of collagen levels by Sircol assay (lung). […] Results were assessed using the unpaired t test and the 3-way ANOVA (for the ID1 data).

The subject of the next test is Egr-1. Briefly: Western blot of Egr-1 in primary human lung fibroblasts. As to conditions: harvested after 24 hours. The format is cell-based. Here is the method: FIG. 16. […] Reduction of Egr-1 levels parallels that of collagen, SMA, and fibronectin. Lane 1: vehicle (DMSO); Lane 2: E4; Lane 3: TGFβ, Lane 4 TGFβ followed by E4 after 60 minutes. The samples were harvested after 24 hours.
In addition, E4 increases levels of inhibitor of differentiation (ID)-1, a transcription factor that inhibits TGF-β effects (see FIG. 15). It was determined in a Western blot analysis that E4 reduces the levels of the master switch transcription factor, Egr-1 (see FIG. 16) in primary human lung fibroblasts, treated and harvested after 24 hours. The reduction of Egr-1 levels parallels a reduction in collagen, SMA and fibronectin. Egr-1 is known to mediate the effects of several fibrotic agents (including TGF-β and bleomycin).
On the technique in general: In western blotting, separated proteins are transferred to a membrane and probed.

The next test deals with CTGF. Briefly: Genes regulated by E4: CTGF. To be noted: primary human fibroblasts treated with bleomycin or TGF-β; RT-qPCR. The test is classed as cell-based. The method, then:
(§1) Several experiments have been performed to identify the mechanisms by which E4 exerts its anti-fibrotic activity. Real-time quantitative PCR (qPCR)-based arrays were performed on RNA extracted from primary human lung fibroblasts or mouse lung tissue stimulated with various fibrotic triggers in the absence and presence of E4 treatment in order to identify genes influenced by the endostatin peptide.
(§2) The arrays identified several genes that have been previously implicated in fibrosis to be influenced by E4 treatment. These genes included connective tissue growth factor (CTGF), insulin-like growth factor binding protein (IGFBP)-3, matrix metalloproteases (MMP)-1 and MMP-3, urokinase plasminogen activator (uPA), plasminogen activator inhibitor (PAI)-1, and hepatocyte growth factor (HGF) with levels either decreased or increased in the presence of E4 as shown in TABLE 5.
In general terms: Real-time PCR tracks product formation cycle by cycle.

In the next test the test system is IGFBP-3. Briefly: Genes regulated by E4: IGFBP-3. The format is cell-based, human. To be noted: HuF-T; RT-qPCR, protein expression levels. The method, then: as §1, §2
In another test the test system is MMP-3. Briefly: Genes regulated by E4: MMP-3. The test is classed as cell-based, human. To be noted: HuF-T; RT-qPCR, protein expression levels, zymography. Here is the method:
as §1, §2

A further test has as its system human skin explants. As to conditions: single dose concurrently with TGF-β; cited from earlier work.
Test [3] relates to bleomycin induced lung fibrosis. As to conditions: i.t.; concomitantly or 3 days after bleomycin; cited from earlier work.
A further test relates to lysyl oxidase (LOX). As to conditions: Yamaguchi et al. 2012; cited from earlier work.

Turning to “E4: SEQ ID NO: 21, amino acids 133-180 of human endostatin with a C-terminal amide (SYCETWRTEAPSATGQASSLLGGRLLGQSAASCHHAYIVLCIENSFMT-NH2; cysteine pairing not given here)”, in test [1] (10 μg/ml intradermal with TGF-β 10 ng/ml, one week), the “TGF-β-induced dermal fibrosis (dermal thickness)” value was “prevented”. In addition, the “TGF-β induced dermal fibrosis, delayed treatment” value in [1] (TGF-β day 1, peptide IP at day 3, harvested day 7) is listed as “significant decrease”. In addition, the “inhibition of tubular structure formation (anti-angiogenic activity)” value in the test on HUVECs was “modest and low and minimal anti-angiogenic activity”. Also, in [2], the “bleomycin induced dermal fibrosis” value is reported as “significant attenuation”. Also, the Egr-1 levels result in the test on Egr-1 is given as “reduces”; with Egr-1 (listed as E-4), “reducing levels”. In addition, in the test on CTGF, the “Effect of E4 peptide on CTGF” value is reported as “reduces; also recorded: Decrease”. In addition, the “Effect of E4 peptide on IGFBP-3” value in the test on IGFBP-3 is “reduces; also recorded: Decrease”. Also, in the test on MMP-3, the “Effect of E4 peptide on MMP-3” value was “increased levels and activity; also recorded: Increase”. For the same substance, the collagen increase result in the test with human skin explants is “skin thickness and attenuated”. Besides, the skin thickness entry in the test with human skin explants was “TGF-β, significantly decreased”. For the same substance, the “pulmonary fibrosis (microscopy, hydroxyproline/collagen)” value in test [3] is “E4 significantly decreased”. Besides, the “levels of lysyl oxidase (LOX)” value in the test on lysyl oxidase (LOX) is “reduces”.
